Data set [1] deals with P-388 murine leukemia cells. The experiment in a line: Cytotoxicity assay, P388 mouse leukemia cells. The class given is cell-based. The protocol:
(§1) The following assay method was utilized to illustrate the antitumor effectiveness of compounds 1-7.
(§2) L1210 And P388 MOUSE LEUKEMIA CELL; ILEOCECAL ADENO CARCINOMA HCT-8; AND LUNG CARCINOMA A549; CYTOXICITY ASSAY 24-WELL PLATE SCREENING ASSAY AND TUBE ASSAY PROTOCOL
(§3) Media--Dulbeccos with glucose and pyruvate (Biologos, Inc) with 10% horse serum, (Biologos, Inc) and 1.0 ug/ml gentamicin (Gibco).
(§4) Cells--L1210 and P-388 mouse leukemia cells (American Type Culture Collection) in media at a concentration of 5×10^4 cells/ml. Sterile 24-well culture plates (Nunc) for screening or 12×75 mm glass culture tubes (Becton-Dickinson) for tube assay. Microdispenser with 1 to 5 ul increments (Drummond Scientific Co. Broomall PA).
(§5) Finnpipette with 5 to 50 ul increments and Finnpipette with 50 to 200 ul increments.
(§6) 1. A sample of the composition to be assayed is added to each well or tube in an amount of from 200 ug/ml and 100 ug/ml for screening. For DDC of known active compounds use log concentrations from 100 ug/ml to 0.01 ug/ml for range-finding assay; when range has been determined, use five concentrations between highest and lowest active concentrations.
(§7) 2. Add 2.0 ml of 5×10^4 cell suspension in media to each well or tube. Tubes are loosely covered with parafilm.
(§8) 3. Incubate in 5% CO2 incubator 48 hours.
(§9) 4. Visually read plates with inverted microscope, comparing with solvent control. Assign activity as follows:
(§10) 1+=75-89% of control growth
(§11) 2+=50-74% of control growth
(§12) 3+=25-49% of control growth
(§13) 4+=<25% of control growth
(§14) Repeat all positive samples using tube assay.
(§15) 5. For Tube assays--Mix tube well on vortex and remove 0.5 ml aliquot and add to 9.5 ml nf diluent fluid (Isoton-Coulter) in Accuvette (Coulter) and mix well by inversion immediately before counting, taking care not to produce excessive bubbles. Count on Coulter Counter (Counter is set to count 0.5 ml of the solution, therefore counts may be converted to cell/ml in original assay tube by multiplying count by 40.
(§16) Positive control--Vinblastine or Vincristine in aqueous solution.

Another data set relates to lung carcinoma A549. In words: Cytotoxicity assay, lung carcinoma A549. The conditions noted are these: Homo sapiens, 48 h, summary table, read-out: Test Cells at (ID 50), A549. The class given is cell-based. The protocol: as §1, §2, §3, §5, §6, §7, §8, §9, §10, §11, §12, §13, §14, §15, §16
The subject of data set [2] is ileocecal adenocarcinoma HCT-8. The experiment in a line: Cytotoxicity assay, ileocecal adenocarcinoma HCT-8. The class given is cell-based. The conditions noted are these: Homo sapiens, 48 h, summary table, read-out: Test Cells at (ID 50), HCT-8. The protocol:
as §1, §2, §3, §5, §6, §7, §8, §9, §10, §11, §12, §13, §14, §15, §16

The next data set has as its system cells. In words: Zone of cytotoxicity in the antiviral disk assay. The class given is cell-based. The conditions noted are these: read at Day 5, disk assay. How it is done:
The following assay method was utilized to illustrate the antiviral effectiveness of compound (1).
(8) Once detached, shake vigorously and immediately add 8 ml medium and shake again.
(9) Count cells. (To 0.5 ml cell suspension add 0.1 ml trypan blue. Wait 5-10 minutes. Count 4 corner squares and middle square of 5×5 array in hemocytometer. Blue cells are dead. Total count per 10 ml in culture
(11) For assay, add 1×10^6 cells to each well (6 wells per culture dish). Bring each well to 2 ml with fresh medium.
(5) Place disks on surface and push through (1 mg/disc, 0.5 mg/disc, 0.25 mg/disc, etc. for crude extracts).
(6) Incubate 48 hr. (making sure dishes remain level).
(1) Add 2 ml neutral red medium.

For the next data set, the system named is HSV-I. The experiment in a line: Antiviral assay: inhibition of HSV-I plaque formation (disks pushed into methyl cellulose overlay). The conditions noted are these: for 25 to 80 plaque forming units of virus cells. The class given is cell-based, herpes simplex-I. How it is done:
The following assay method was utilized to illustrate the antiviral effectiveness of compound (1). (1) Remove 75 cm^2 culture flasks from incubator (these were plated the previous week). (2) Aspirate medium. (3) Wash with 10 ml PBSA or Puck's Saline. (4) Aspirate. (5) Wash a second time with 10 ml PBSA or Puck's Saline. (6) Aspirate. (7) Add 2 ml trypsin/EDTA. Incubate until cells detach (10-20 min). (8) Once detached, shake vigorously and immediately add 8 ml medium and shake again. (9) Count cells. (To 0.5 ml cell suspension add 0.1 ml trypan blue. Wait 5-10 minutes. Count 4 corner squares and middle square of 5×5 array in hemocytometer. Blue cells are dead. Total count per 10 ml in culture flask=# live cells×6×10^5). (10) Maintain cell line by adding 3×10^6 cells to another 75 cm^2 culture flask. Bring to 30 ml with fresh medium. (11) For assay, add 1×10^6 cells to each well (6 wells per culture dish). Bring each well to 2 ml with fresh medium. (12) Incubate overnight at 37° C. (1) Aspirate medium. […] (3) Incubate […] with a small amount of shaking. (4) Add 2 ml MC-4000 to each well. (5) Place disks on surface and push through (1 mg/disc, 0.5 mg/disc, 0.25 mg/disc, etc. for crude extracts). (6) Incubate 48 hr. (making sure dishes remain level). (1) Add 2 ml neutral red medium. (2) Incubate overnight. […]

Data set [3] concerns L-1210 murine leukemia cells. The experiment in a line: Cytotoxicity assay, L1210 mouse leukemia cells. The class given is cell-based. The settings on record: for viability at 200 µg/mL: in vitro, at 200 micrograms per milliliter, read-out: survival, L-1210. The protocol: as §1, §2, §3, §4, §5, §6, §7, §8, §9, §10, §11, §12, §13, §14, §15, §16
A short description of data set [4]: Stability at room temperature. The class given is physicochemical.
The mark [5] stands for this setting: P-388, summary table, read-out: Test Cells at (ID 50), P-388.
The mark [6] stands for this setting: in vitro, P-388 murine leukemia cells, read-out: estimated ID50 (dose which kills 50% of the cells), P-388.

Converted amounts (≈) assume the structure as drawn. Read-outs that look alike come from different tables or passages of the source.

This is an account of results in US4708962A, “Antiviral and antitumor cyclohexadienone compositions” (Harbor Branch Oceanographic Institution, Inc., priority 1985, dated 1987).

In the case of `CC1(C)C=CC(=O)C(C(Cl)CBr)=C1` (stereo not drawn) [Composition 6], the IC50 in data set [1] (setting [5]) worked out at 0.5 µg/mL (≈ 1.9 µM); in the data set on lung carcinoma A549, 5 µg/mL (≈ 19 µM); in data set [2], 5 µg/mL (≈ 19 µM).

In the case of `CC(=O)OCC(Cl)C1=CC(C)(C)C=CC1=O` (stereo not drawn) [Compound 1], the IC50 in data set [1] (setting [5]) was 5 µg/mL (≈ 20.6 µM); in data set [1] (setting [6]), 37 µg/mL (≈ 152 µM); with lung carcinoma A549, 20 µg/mL (≈ 82.4 µM); in data set [2], 10 µg/mL (≈ 41.2 µM). Besides, the “zone of cytotoxicity as the diameter” value in the data set with cells came out at 16 mm. Besides, in the data set on HSV-I, the “minimal effective amounts (antiviral activity)” value fell in the range of 50 to 100 micrograms.

In the case of `C=C(OC)C1=CC(C)(C)C=CC1=O` [Compound 2], the IC50 turned out to be 5 µg/mL (≈ 28.1 µM) in data set [1] (setting [5]), 30 µg/mL (≈ 168 µM) in the data set on lung carcinoma A549 and 20 µg/mL (≈ 112 µM) in data set [2]. Moreover, the viability at 200 µg/mL in data set [3] turned out to be 15%.

On to `COC(C)(OC)C1=CC(C)(C)C=CC1=O` [Compound 3], for which the IC50 in data set [1] (setting [5]) is 10 µg/mL (≈ 47.6 µM); in data set [1] (setting [6]), 70 µg/mL (≈ 333 µM); in the data set with lung carcinoma A549, 30 µg/mL (≈ 143 µM); in data set [2], 30 µg/mL (≈ 143 µM). Besides, the viability at 200 µg/mL in data set [3] was found to be 17%.

In the case of `CC(=O)C1=CC(C)(C)C=CC1=O` [Compound 4], the IC50 in data set [1] (setting [5]) is 5 µg/mL (≈ 30.4 µM); in data set [1] (setting [6]), 70 µg/mL (≈ 426 µM); in the data set on lung carcinoma A549, 5 µg/mL (≈ 30.4 µM); in data set [2], 5 µg/mL (≈ 30.4 µM). Also, in data set [3], the viability at 200 µg/mL turned out to be 41%.

For the molecule `CC1(C)C=CC(=O)C(C2CO2)=C1` (stereo not drawn) [Compound 5], the IC50 was 10 µg/mL (≈ 60.9 µM) in data set [1] (setting [5]); 5 µg/mL (≈ 30.4 µM) in data set [1] (setting [6]); 1 µg/mL (≈ 6.09 µM) in the data set on lung carcinoma A549; 5 µg/mL (≈ 30.4 µM) in data set [2]; 0.7 µg/mL (≈ 4.26 µM) in data set [3] (L-1210 murine leukemia cells, read-out: estimated ID50, L-1210). In addition, in data set [3], the viability at 200 µg/mL came to 25%.

As to `CC1(C)C=CC(=O)C(C(Cl)CO)=C1` (stereo not drawn) [Formula VIII], the decomposition result in data set [4] was “decompose at room temperature in two hours”.
